From patent publication US20040229246A1, “Diagnostic markers for therapeutic treatment” (Can-Fite Biopharam Ltd., priority 2002, published 2004) come the findings set out here.

The structures appear in SMILES notation. “Also recorded” adds a separate entry of the source. Peptide text beside a SMILES is read from it. * marks the point of attachment. Cbz = O=C(OCc1ccccc1)*

Assay [1] concerns the target T1, A3AR (Mus musculus, UniProt Q61618).
T1 construct: endogenous in cells; host or cells: B16-F10 melanoma cells
T1 sequence (Q61618 1-319): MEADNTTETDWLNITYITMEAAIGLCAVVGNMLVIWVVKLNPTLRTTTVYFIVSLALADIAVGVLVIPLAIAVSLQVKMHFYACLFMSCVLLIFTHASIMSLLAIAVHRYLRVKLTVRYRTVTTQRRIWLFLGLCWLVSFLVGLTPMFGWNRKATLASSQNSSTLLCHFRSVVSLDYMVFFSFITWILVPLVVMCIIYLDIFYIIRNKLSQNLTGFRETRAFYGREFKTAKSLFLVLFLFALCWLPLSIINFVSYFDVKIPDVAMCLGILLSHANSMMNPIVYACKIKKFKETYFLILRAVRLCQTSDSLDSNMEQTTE
Nature of the assay: Western blot analysis of A3AR protein in B16-F10 melanoma cells. To be noted: B16-F10 melanoma cells exposed for 180 minutes to IB-MECA in the presence of the inhibitor. It is filed as cell-based. Here is the method: (§1) To detect the level of expression of the A3AR proteins Western blot analysis was performed. Cells were incubated in the presence and absence of IB-MECA (10 nM), MRS1523 (10 nM), Forskolin (50 nM), 8 Br cAMP (100 μM), Cycloheximide 20 μg/ml or MG 132 (20 nM) for different time periods at 37° C. Cells were then rinsed with ice-cold PBS and transferred to ice-cold lysis buffer (TNN buffer, 50 mM Tris buffer pH=7.5, 150 mM NaCl, NP 40). In the experiment examining the effect of trypsin on A3AR expression, cells were incubated with 0.5 ml of 0.25% trypsin for 5 minutes. The trypsinized cells were washed again with ice-cold PBS, harvested by centrifugation and subjected to lysis in TNN buffer. Cell debris was removed by centrifugation for 10 minutes, at 7500 xg. The supernatant was utilized for Western Blot analysis. Protein concentrations were determined using the Bio-Rad protein assay dye reagent. Equal amounts of the sample (50 μg) were separated by SDS-PAGE, using 12% polyacrylamide gels. The resolved proteins were then electroblotted onto nitrocellulose membranes (Schleicher & Schuell, Keene, NH, USA). Membranes were blocked with 1% bovine serum albumin and incubated with the desired primary antibody (dilution 1:1000) for 24 hours at 4° C. Blots were then washed and incubated with a secondary antibody for 1 hour at room temperature. Bands were recorded using BCIP/NBT color development kit (Promega, Madison, W1, USA). Data presented in the different figures are representative of at least three different experiments.
Receptor internalization by treating melanoma cells with trypsin, which removes the cell surface receptor, was examined.
Time dependent expression of A3AR in the melanoma cells was examined by Western blot analysis.
In general terms: In western blotting, separated proteins are transferred to a membrane and probed.

The test system of assay [2] is PKA and GSK-3β. Nature of the assay: Receptor functionality: Western blot of PKA and GSK-3β in B16-F10 melanoma cells. It is filed as cell-based. As for the experimental part: as §1
To test receptor functionality, the protein expression level of PKA and GSK-3β, which are modulated downstream to A3AR activation, was examined. Functional receptor sensitization by IB-MECA was observed after 15 and 60 minutes and was manifested by decreased PKA and increased GSK-3β levels. […] Indeed, the modulatory effect of IB-MECA on PKA and GSK-3β was reversed in the presence of the above agents (FIG. 8a, 8b and 8c).

The subject of assay [3] is A3AR. Kind of assay: Northern blot analysis of A3AR mRNA in B16-F10 melanoma cells. It is filed as cell-based. The following applies: B16-F10 melanoma cells, antagonist with IB-MECA. As for the experimental part: Total RNA was isolated from B16-F10 melanoma cells treated with IB-MECA, utilizing Tri-reagent (Sigma, Saint Louis). The samples were then subjected twice to phenol:chloroform extraction and washed with chloroform. RNA was precipitated with sodium acetate/ethanol following washing with ethanol, then denatured, separated (25 μg per lane) in 1.1% formaldehyde agarose gels and transferred to Hybond-N membrane. The 390 bp EcoRI fragment from A3AR cDNA clone of mouse (TAA3I.S), kindly supplied by Dr Kathia Ravid, was prepared by random-primed synthesis. Probes were used in RNA blot analysis at a hybridization temperature of 42° C. in the presence of 50% formamide.

Assay [4] concerns adjuvant induced arthritis. Nature of the assay: Adjuvant induced arthritis (AIA) in rats, clinical and histological score. It is filed as in vivo. The following applies: administered 30 minutes prior to IB-MECA. Here is the method:
AIA in Rats: Female Lewis rats, aged 8-12 weeks, obtained from Harlan Laboratories (Jerusalem, Israel), were injected subcutaneously (s.c.) at the tail base with 100 μl of suspension composed of incomplete Freund's adjuvant (IFA) with 10 mg/ml heat killed Mycobacterium tuberculosis, (Mt) H37Ra, (Difco, Detroit, USA). To assess the clinical disease activity score, the animals were inspected every second day for clinical arthritis. The scoring system ranged from 0-4 of each limb: 0-no arthritis; 1-redness or swelling of one toe/finger joint; 2-redness and swelling of more than one toe/finger joints; 3-the ankle and tarsal-metatarsal joints involvement; 4-entire paw redness or swelling. The arthritic score was calculated by adding the four individual legs' score to a maximum of 16. For histological scoring, Animals were sacrificed, the legs were removed up to the knee level, fixed in 10% formaldehyde, decalcified, dehydrated, paraffin-embedded, cut into 4 μm sections and stained by Hematoxylin-Eosin. The assessment of all pathologic findings were performed blind using semi-quantitative grading scales of 0 to 4 for the following parameters: a) extent of inflammatory cells' infiltration to the joint tissues; b) synovial lining cell hyperplasia; c) pannus formation; and d) joint cartilage layers destruction. […] TNF-α was measured in synovia, DLN and spleen tissues derived from control and CF101 treated rats. […] Protein concentrations were determined using the Bio-Rad protein assay dye reagent. […] Bands were recorded using BCIP/NBT color development kit (Promega, Madison, Wis., USA). Densitometry of protein expression was normalized against β-actin and expressed as % of control. […]

Assay [5] has as its system A3AR, A2AR, PI3K, PKB/Akt, IKKα/β, NF-κB, TNF-α, GSK-3β, caspase-3. Kind of assay: Western blot of A3AR and downstream signaling proteins in DLN and synovial tissue of AIA rats. It is filed as in vivo. To be noted: antagonist followed by IB-MECA.

Take `CC(C)C[C@@H](C=O)NC(=O)[C@H](CC(C)C)NC(=O)[C@H](CC(C)C)NC(=O)OCc1ccccc1` [MG132] (Cbz-Leu-Leu-Leu-aldehyde): in assay [1], the “effect on IB-MECA-induced modulation of A3AR protein expression” value was “prevented A3AR down-regulation”.

Take `CCCOC(=O)c1c(-c2ccccc2)nc(CC)c(C(=O)SCC)c1CCC` [MRS1523]: the “modulatory effect of IB-MECA on PKA and GSK-3β in the presence of the agent” value in assay [2] is “reversed”. For the same molecule, the “effect on IB-MECA-induced A3AR mRNA expression” value in assay [3] was “reversed the increase in mRNA expression”.

For the molecule `O=C(Cc1ccccc1)Nc1nc2ccc(Cl)cc2c2nc(-c3ccco3)nn12` [MRS 1220], the “effect on the anti-inflammatory response of IB-MECA (clinical score)” value in assay [4] is given as “nullified; also recorded: nullification”. Besides, in assay [5], the “effect on IB-MECA-induced A3AR modulation” value is “blocked this modulation”.

Consider `Nc1ncnc2c1nc(Br)n2[C@@H]1O[C@@H]2COP(=O)(O)O[C@H]2[C@H]1O` [8-Br-cAMP], for which, in assay [2], the “modulatory effect of IB-MECA on PKA and GSK-3β in the presence of the agent” value is listed as “reversed”.

`C[C@@H]1C[C@@H]([C@H](O)CC2CC(=O)NC(=O)C2)C(=O)[C@@H](C)C1` [cycloheximide]: the “effect on IB-MECA-induced modulation of A3AR protein expression” value in assay [1] was “inhibited receptor up-regulation”.
